# Results published in patent US20110171135A1, “PEST-CONTROL COMPOSITIONS AND METHODS HAVING HIGH TARGET AND LOW NON-TARGET ACTIVITY” (priority 2008, published 2011).
# What was measured:
# [1] = target: T1, tyramine receptor (TyrR) (Drosophila melanogaster, UniProt P22270); experiment: Tyramine receptor binding with 3H-tyramine in transfected Schneider cells
# T1 construct: The open reading frame of the Drosophila tyramine receptor (TyrR) may be amplified via PCR; expressed in transfected cells; host or cells: Drosophila Schneider cells
# T1 sequence (P22270 27-601): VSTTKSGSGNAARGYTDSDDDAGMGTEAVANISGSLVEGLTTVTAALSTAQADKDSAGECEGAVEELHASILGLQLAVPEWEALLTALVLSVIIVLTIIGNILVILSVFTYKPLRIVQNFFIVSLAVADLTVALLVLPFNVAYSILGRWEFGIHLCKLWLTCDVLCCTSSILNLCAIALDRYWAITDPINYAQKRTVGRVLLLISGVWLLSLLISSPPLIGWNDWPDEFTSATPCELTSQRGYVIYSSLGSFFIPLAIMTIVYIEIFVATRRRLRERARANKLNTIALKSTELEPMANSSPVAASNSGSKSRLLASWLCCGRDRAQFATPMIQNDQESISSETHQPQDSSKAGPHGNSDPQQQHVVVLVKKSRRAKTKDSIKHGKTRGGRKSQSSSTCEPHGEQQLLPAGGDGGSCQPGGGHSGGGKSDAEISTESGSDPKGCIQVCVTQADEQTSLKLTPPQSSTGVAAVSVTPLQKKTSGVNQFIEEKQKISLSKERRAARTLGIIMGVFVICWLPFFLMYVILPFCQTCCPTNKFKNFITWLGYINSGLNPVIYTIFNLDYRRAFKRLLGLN
# Source text: Tyramine receptor may be amplified, for example, from a Drosophila melanogaster head cDNA phage library. Phage DNA may be purified from this library by known methods using a liquid culture lysate. The open reading frame of the Drosophila tyramine receptor (TyrR) may be amplified via PCR, and the PCR product may be digested, and the TyrR open reading frame may be inserted into an expression vector using known methods, and transfected Schneider cell clones may be prepared.
# Tyramine receptor binding/uptake may be performed to determine which of the transfected clones have the highest levels of functionally active tyramine receptor protein, and the selected clone may be propagated and stored in liquid nitrogen. Aliquots of the selected clone are grown for whole cell binding and for plasma membrane preparation for kinetic and screening studies.
# For binding studies, cells transfected with the tyramine receptor (about 1×10^6 cells/ml) are cultured in each well of a multi-well plate, and binding is assessed using ^3H-tyramine and unlabeled tyramine. […] Saturation binding experiments may be performed to determine Bmax and Kd values for TyrR.
# [2] = test system: tyramine receptor mutant (TyrRneo30) strains; format: in vivo, Drosophila; conditions: topically applied at LD50 determined against wild type; mortality 24 h after treatment; FIG. 4
# Experimental: LD50 values of tested chemicals (determined against wild type Drosophila) were topically applied against wild type and tyramine receptor mutant (TyrRneo30) strains. Mortality was determined 24 h after treatment. Data are the average of three replicates, 5 flies per replicate. This experiment was repeated five times.
# [3] = test system: wild-type strain of E. coli; experiment: MIC over successive weeks (resistance development) in E. coli; format: cell-based; conditions: MIC determined weekly and applied, repeated for 4 weeks
# Experimental: Test compositions and conventional pesticides are compared to determine their respective ability to maintain pesticidal effectiveness over successive generations of pest species. For example, a wild-type strain of E. coli is treated with both penicillin (group 1) and a test composition from Table 1 or Table 2 (group 2). MIC (minimum inhibitory concentration; the lowest concentration of an antibacterial that will inhibit the visible growth of a microorganism after overnight incubation) values are determined at 1-week post-treatment for both groups, and the appropriate MIC amount is applied to both test populations. This is repeated for 4 weeks. […] In contrast, the MIC value for group 2 remains static, indicating a lack of resistance development among the group 2 population.
compound,measurement,setting,value
"NCCc1ccc(O)cc1 [Blend 3H-tyramine, ^3H-tyramine]",3H-tyramine concentration at which maximum specific binding occurs,[1]; cells transfected with the tyramine receptor,about 5 nM
Cc1ccc(C(C)C)cc1O [carvacrol],effect (mortality) on Drosophila expressing a mutant form of the tyramine receptor,[2],did not affect
NCCc1ccc(O)cc1 [tyramine],response of untransfected cells to tyramine,"[1]; untransfected cells, concentration as high as about 100 μM",do not respond
penicillin,course of the MIC value over time (resistance development),[3],increases over time
